Measured values as given in patent US8362236B2, “Macrocyclic compound” (Chugai Seiyaku Kabushiki Kaisha, priority 2007, dated 2013).
“And” between values parts separate entries of the source, which are not always exact repeats. Equal values may be shown once. Read-outs that look alike come from different tables or passages of the source.

How the values were obtained:
Human HSP90 alpha = molecular target: T1, Human HSP90 alpha (Homo sapiens, UniProt P07900); assay: Assay for the activity of inhibiting HSP90 enzyme (ATPase, malachite green); assay type: biochemical; settings: purified human HSP90 alpha, 1 mM ATP added, 37° C. for two hours, OD655
T1 construct: His tag (inferred from purification on a HisPrep FF column); made in house; host or cells: E. coli BL21 codon plus (Stratagene)
Method: Introduction of pETHuHSP90a into E. coli (BL21 codon plus; Stratagene) was followed by O/N incubation in the presence of 0.1 mM IPTG, and the collected E. coli cells were disrupted by ultrasonication in a Lysis buffer (50 mM Tris-HCl (pH8.0), 10 mM MgCl2, 0.1% Triton X-100, Protease inhibitor cocktail tablets (Roche Diagnostics)). The cell lysate solution was centrifuged (10,000 rpm×30 minutes), and the supernatant obtained after centrifugation was used as a crude extract. The crude extract was fractionated using HisPrep FF column and HiTrap Q column (Amersham) to prepare a purified enzyme solution.
An enzyme solution for assays was prepared by dilution of the purified enzyme solution using an assay buffer (50 mM Tris HCl pH7.6, 20 mM KCl, 5 mM MgCl2).
10 μL each of various concentrations of the test substances (10% DMSO solution) was added to each well, and for the positive control wells, 10 μL of 10% DMSO was added. 10 μL of 10% DMSO was also added to the negative control well.
10 μL of 1 mM ATP was added to all of the wells, and the reaction was carried out at 37° C. for two hours.

HCT116 cells = assay: Measurement of cell growth inhibition (Cell Counting Kit-8, four days); settings: Homo sapiens, HCT-116, 96 h, read-out: Cell growth-inhibiting activity (IC50, μM) Colon cancer HCT116, HCT116 colon cancer cell line, four days culture;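 note: cells exposed to a range of test concentrations at 37 °C in 5% CO2 for four days, then growth read as absorbance with Cell Counting Kit-8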
Method: Cells were maintained under conditions recommended by the provider of each cell line. Cells suspended in a medium were added to solutions containing various concentrations of the test substance, and the cells were cultured at 37° C. in a 5% CO2 incubator. Four days later, Cell Counting Kit-8 was added, and absorbance measurements were taken following the protocol included in the kit.

[1] = read-out: Enzyme-inhibiting activity (IC50, μM) Human HSP90α

IC50 (Human HSP90 alpha; [1]) | IC50 (HCT116 cells) [µM] | SMILES | IC50 (Human HSP90 alpha; Enzyme-inhibiting activity (IC50, μM) Human HSP90α)
1.8 µM |  | Nc1nc2cc(n1)-c1cc(c(Cl)cc1Cl)OCCCCOc1cccc(c1)S2 [Compound 21, 4-amino-20,22-dichloro-13,18-dioxa-7-thia-3,5-diazatricyclo[17.3.1.1^2,6.1^8,12]pentacosa-1(23),2,4,6(24),8,10,12(25),19,21-nonaene] | 
4.3 µM and 6.2 µM | 5 | Cc1cc(C)c2cc1C(=O)NCCC(NC(=O)[C@H](N)C(C)C)C(=O)NCCSc1cc-2nc(N)n1 (some centres unmarked) [Compound 76] | 
1.7 µM | 0.3 | Cc1cc(C)c2cc1C(=O)NCCOCCNC(=O)CCSc1cc-2nc(N)n1 [Compound 29, 4-amino-20,22-dimethyl-14-oxa-7-thia-3,5,11,17-tetraazatricyclo[17.3.1.1^2,6]tetracosa-1(22),2(24),3,5,19(23),20-hexaene-10,18-dione] | 
1.3 µM |  | CCOc1cc(C)c2cc1C(=O)NCCCOc1cccc(c1)Sc1cc-2nc(N)n1 [Compound 17, 4-amino-20-ethoxy-22-methyl-13-oxa-7-thia-3,5,17-triazatricyclo[17.3.1.1^2,6.1^8,12]pentacosa-1(22),2(24),3,5,8(25),9,11,19(23),20-nonaen-18-one] | 
2.8 µM | 0.4 | Cc1cc(C)c2cc1C1=N[C@@H](CCNC(=O)CCSc3cc-2nc(N)n3)CO1 [Compound 83, (S)-4-amino-19,21-dimethyl-10-oxo-7-thia-16-oxa-3,5,11,24-tetraazatetracyclo[16.3.1.1^2,6.1^7,10]tetracosa-1(22),2(23),3,5,17(24),19,21-heptaen-10-one] | 
1.7 µM | 2.4 | Nc1nc2cc(n1)-c1cc(c(Cl)cc1Cl)OCCCCCOc1cccc(c1)S2 [Compound 22, 4-amino-21,23-dichloro-13,19-dioxa-7-thia-3,5-diazatricyclo[18.3.1.1^2,6.1^8,12]hexacosa-1(24),2,4,6(24),8,10,12(26),20,22-nonaene] | 
1.1 µM | > 10 | COc1cc(C)c2cc1C(=O)N(C)CCCC(=O)NCCSc1cc-2nc(N)n1 [Compound 10, 4-amino-18-methoxy-15,20-dimethyl-7-thia-3,5,10,15-tetraazatricyclo[15.3.1.1^2,6]docosa-1(20),2(22),3,5,17(21),18-hexaene-11,16-dione] | 
1.9 µM | > 10 | COc1cc(C)c2cc1C(=O)NCCCC(=O)NCCSc1cc-2nc(N)n1 [Compound 9, 4-amino-18-methoxy-20-methyl-7-thia-3,5,10,15-tetraazatricyclo[15.3.1.1^2,6]docosa-1(20),2(22),3,5,17(21),18-hexaene-11,16-dione] | 
2.5 µM | 0.2 | Cc1cc(C)c2cc1C(=O)NCCCC(=O)N(C)CCSc1cc-2nc(N)n1 [Compound 82, 4-amino-10,18,20-trimethyl-7-thia-3,5,10,15-tetraazatricyclo[15.3.1.1^2,6]docosa-1(20),2(22),3,5,17(21),18-hexaene-11,16-dione] | 
0.5 µM | 0.4 | Cc1cc(C)c2cc1C(=O)NCCCN(C)C(=O)CCSc1cc-2nc(N)n1 [Compound 32, 4-amino-11,18,20-trimethyl-7-thia-3,5,11,15-tetraazatricyclo[15.3.1.1^2,6]docosa-1(20),2,4,6(22),17(21),18-hexaene-10,16-dione] | 
2.5 µM | > 10 | COCCNC(=O)[C@@H]1CCNC(=O)CCSc2cc(nc(N)n2)-c2cc(c(C)cc2C)C(=O)N1 [Compound 66, (S)-4-amino-18,20-dimethyl-10,16-dioxo-7-thia-3,5,11,15-tetraazatricyclo[15.3.1.1^2,6]docosa-1(20),2(22),3,5,17(21),18-hexaene-14-carboxylic acid (2-methoxyethyl) amide] | 
1.1 µM | > 10 | Cc1cc(C)c2cc1C(=O)NCCC[C@@H](C(=O)NCCO)NC(=O)CCSc1cc-2nc(N)n1 [Compound 46, (S)-4-amino-19,21-dimethyl-10,17-dioxo-7-thia-3,5,11,16-tetraazatricyclo[16.3.1.1^2,6]tricosa-1(21),2,4,6(23),18(22),19-hexaene-12-carboxylic acid (2-hydroxyethyl)amide] | 
1.6 µM | 0.14 | Nc1nc2cc(n1)-c1cc(c(Cl)cc1Cl)C(=O)NCCCC(=O)NCCS2 [Compound 15, 4-amino-18,20-dichloro-7-thia-3,5,10,15-tetraazatricyclo[15.3.1.1^2,6]docosa-1(20),2(22),3,5,17(21),18-hexaene-11,16-dione] | 
1.1 µM | 1.4 | Nc1nc2cc(n1)-c1cc(c(Cl)cc1Cl)OCCOCCOc1cccc(c1)S2 [Compound 23, 21,23-dichloro-13,16,19-trioxa-7-thia-3,5-diazatricyclo[18.3.1.1^2,6.1^8,12]hexacosa-1(23),2(25),3,5,8(26),9,11,20(24),21-nonaen-4-ylamine] | 
2.8 µM | 0.5 | Cc1cc(C)c2cc1C(=O)NCCC(N(C)C)C(=O)NCCSc1cc-2nc(N)n1 (centres unmarked) [Compound 78, 4-amino-12-dimethylamino-18,20-dimethyl-7-thia-3,5,10,15-tetraazatricyclo[15.3.1.1^2,6]docosa-1(20),2(22),3,5,17(21),18-hexaene-11,16-dione] | 
1.7 µM | 7.1 | Cc1cc(C)c2cc1C(=O)N[C@H](CO)CCNC(=O)CCSc1cc-2nc(N)n1 [Compound 68, (S)-4-amino-14-hydroxymethyl-18,20-dimethyl-7-thia-3,5,11,15-tetraazatricyclo[15.3.1.1^2,6]docosa-1(20),2(22),3,5,17(21),18-hexaene-10,16-dione] | 
2.9 µM | 3.2 | COC(=O)[C@H]1CCNC(=O)c2cc(c(C)cc2C)-c2cc(nc(N)n2)SCCC(=O)N1 [Compound 69, (R)-4-amino-18,20-dimethyl-10,16-dioxo-7-thia-3,5,11,15-tetraazatricyclo[15.3.1.1^2,6]docosa-1(20),2,4,6(22),17(21),18-hexaene-12-carboxylic acid methyl ester] | 
0.7 µM | 1.8 | Cc1cc(C)c2cc1C(=O)NCCCN(CCN1CCOCC1)C(=O)CCSc1cc-2nc(N)n1 [Compound 36, 4-amino-18,20-dimethyl-11-(2-morpholin-4-ylethyl)-7-thia-3,5,11,15-tetraazatricyclo[15.3.1.1^2,6]docosa-1(20),2,4,6(22),17(21),18-hexaene-10,16-dione] | 
1.8 µM | 0.5 | Cc1cc(C)c2cc1C(=O)NCCN(C)CCNC(=O)CCSc1cc-2nc(N)n1 [Compound 30, 4-amino-14,20,22-trimethyl-7-thia-3,5,11,14,17-pentaazatricyclo[17.3.1.1^2,6]tetracosa-1(22),2(24),3,5,19(23),20-hexaene-10,18-dione] | 
1.3 µM | 0.72 | Cc1cc(C)c2cc1C(=O)NCCC(=O)NCCSc1cc-2nc(N)n1 [Compound 12, 4-amino-17,19-dimethyl-7-thia-3,5,10,14-tetraazatricyclo[14.3.1.1^2,6]henicosa-1(19),2(21),3,5,16(20),17-hexaene-11,15-dione] | 
1.4 µM | 0.2 | Nc1nc2cc(n1)-c1cc(c(Cl)cc1Cl)C(=O)NCCCCCC(=O)NCCS2 [Compound 28, 4-amino-20,22-dichloro-7-thia-3,5,10,17-tetraazatricyclo[17.3.1.1^2,6]tetracosa-1(22),2(24),3,5,19(23),20-hexaene-11,18-dione] | 
1 µM | 0.5 | Cc1cc(C)c2cc1C(=O)NCCCCNC(=O)CCCSc1cc-2nc(N)n1 [Compound 5, 4-amino-20,22-dimethyl-7-thia-3,5,12,17-tetraazatricyclo[17.3.1.1^2,6]tetracosa-1(22),2(24),3,5,19(23),20-hexane-11,18-dione] | 
1.6 µM |  | COc1cc(C)c2cc1C(=O)NCCCOc1cccc(c1)Sc1cc-2nc(N)n1 [Compound 16, 4-amino-20-methoxy-22-methyl-13-oxa-7-thia-3,5,17-triazatricyclo[17.3.1.1^2,6.1^8,12]pentacosa-1(22),2(24),3,5,8(25),9,11,19(23),20-nonaen-18-one] | 

SMILES | IC50 (Human HSP90 alpha; [1]) | IC50 (HCT116 cells) [µM] | IC50 (Human HSP90 alpha; Enzyme-inhibiting activity (IC50, μM) Human HSP90α)
Cc1cc(C)c2cc1C(=O)NCCC(NC(=O)[C@H](N)Cc1ccc(O)cc1)C(=O)NCCSc1cc-2nc(N)n1 (some centres unmarked) [Compound 77] |  | 6.5 | 5 µM and 3.4 µM
Cc1cc(C)c2cc1C(=O)NCCCC(=O)NCCSc1cc-2nc(N)n1 [Compound 11, 4-amino-18,20-dimethyl-7-thia-3,5,10,15-tetraazatricyclo[15.3.1.1^2,6]docosa-1(20),2(22),3,5,17(21),18-hexaene-11,16-dione] | 1.2 µM |  | 
Cc1cc(C)c2cc1C(=O)NCCNC(=O)CCCSc1cc-2nc(N)n1 [Compound 4, 4-amino-18,20-dimethyl-7-thia-3,5,12,15-tetraazatricyclo[15.3.1.1^2,6]docosa-1(20),2(22),3,5,17(21),18-hexaene-11,16-dione] | 1 µM |  | 
